Columns and labels:
IGROV1 = assay: NCI-60 five-dose assay; assay type: cell-based, human; details: IGROV1, Ovarian Cancer
CCRF-CEM = assay: NCI-60 five-dose assay; assay type: cell-based, human; details: CCRF-CEM, Leukemia
COLO 205 = assay: NCI-60 five-dose assay; assay type: cell-based, human; details: COLO 205, Colon Cancer
RXF 393 = assay: NCI-60 five-dose assay; assay type: cell-based, human; details: RXF 393, Renal Cancer
EGFR = EGFR (Homo sapiens, UniProt P00533); assay: EGFR inhibitory assay
A549/ATCC = assay: NCI-60 five-dose assay; assay type: cell-based, human; details: A549/ATCC, Non-Small Cell Lung Cancer
EKVX = assay: NCI-60 five-dose assay; assay type: cell-based, human; details: EKVX, Non-Small Cell Lung Cancer
Ovarian Cancer subpanel = assay: NCI-60 five-dose assay, subpanel; assay type: cell-based, human; details: Ovarian Cancer
HCT-15 = assay: NCI-60 five-dose assay; assay type: cell-based, human; details: HCT-15, Colon Cancer
BRAF^V600E = assay: biochemical
KM12 = assay: NCI-60 five-dose assay; assay type: cell-based, human; details: KM12, Colon Cancer
T-47D = assay: NCI-60 five-dose assay; assay type: cell-based, human; details: T-47D, Breast Cancer
LOX IMVI = assay: NCI-60 five-dose assay; assay type: cell-based, human; details: LOX IMVI, Melanoma
SK-MEL-28 = assay: NCI-60 five-dose assay; assay type: cell-based, human; details: SK-MEL-28, Melanoma
OVCAR-5 = assay: NCI-60 five-dose assay; assay type: cell-based, human; details: OVCAR-5, Ovarian Cancer
MCF7 = assay: NCI-60 five-dose assay; assay type: cell-based, human; details: MCF7, Breast Cancer
NCI-H522 = assay: NCI-60 five-dose assay; assay type: cell-based, human; details: NCI-H522, Non-Small Cell Lung Cancer
Melanoma subpanel = assay: NCI-60 five-dose assay, subpanel; assay type: cell-based, human; details: Melanoma
UACC-62 = assay: NCI-60 five-dose assay; assay type: cell-based, human; details: UACC-62, Melanoma
MALME-3M = assay: NCI-60 five-dose assay; assay type: cell-based, human; details: MALME-3M, Melanoma
[1] = Homo sapiens, read-out: GI50 Conc. per Cell Line
[2] = Homo sapiens, read-out: LC50 (the source's name)
[3] = Homo sapiens, average sensitivity of all subpanel cell lines, read-out: GI50 Subpanel MID b

Chain of BRAF^V600E (P28028 whole entry V585E): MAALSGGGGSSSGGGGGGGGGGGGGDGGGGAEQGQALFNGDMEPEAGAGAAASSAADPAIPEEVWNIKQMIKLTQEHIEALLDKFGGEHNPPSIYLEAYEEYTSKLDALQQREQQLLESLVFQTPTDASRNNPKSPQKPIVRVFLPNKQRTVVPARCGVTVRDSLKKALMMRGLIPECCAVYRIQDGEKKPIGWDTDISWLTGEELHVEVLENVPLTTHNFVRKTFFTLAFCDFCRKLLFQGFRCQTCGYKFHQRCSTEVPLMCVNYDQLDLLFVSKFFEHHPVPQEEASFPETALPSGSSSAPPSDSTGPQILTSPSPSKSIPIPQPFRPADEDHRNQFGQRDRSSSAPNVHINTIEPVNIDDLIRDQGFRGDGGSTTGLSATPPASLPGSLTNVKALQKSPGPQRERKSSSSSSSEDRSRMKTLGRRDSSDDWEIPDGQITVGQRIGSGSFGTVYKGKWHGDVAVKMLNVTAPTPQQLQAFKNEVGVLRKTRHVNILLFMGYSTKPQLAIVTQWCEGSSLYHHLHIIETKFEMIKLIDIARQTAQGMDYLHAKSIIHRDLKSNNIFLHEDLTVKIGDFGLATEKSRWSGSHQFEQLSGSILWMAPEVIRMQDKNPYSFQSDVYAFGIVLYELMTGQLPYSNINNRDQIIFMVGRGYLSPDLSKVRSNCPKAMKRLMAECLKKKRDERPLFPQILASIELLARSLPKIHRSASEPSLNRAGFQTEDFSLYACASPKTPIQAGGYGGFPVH
Chain of EGFR (P00533 669-1210): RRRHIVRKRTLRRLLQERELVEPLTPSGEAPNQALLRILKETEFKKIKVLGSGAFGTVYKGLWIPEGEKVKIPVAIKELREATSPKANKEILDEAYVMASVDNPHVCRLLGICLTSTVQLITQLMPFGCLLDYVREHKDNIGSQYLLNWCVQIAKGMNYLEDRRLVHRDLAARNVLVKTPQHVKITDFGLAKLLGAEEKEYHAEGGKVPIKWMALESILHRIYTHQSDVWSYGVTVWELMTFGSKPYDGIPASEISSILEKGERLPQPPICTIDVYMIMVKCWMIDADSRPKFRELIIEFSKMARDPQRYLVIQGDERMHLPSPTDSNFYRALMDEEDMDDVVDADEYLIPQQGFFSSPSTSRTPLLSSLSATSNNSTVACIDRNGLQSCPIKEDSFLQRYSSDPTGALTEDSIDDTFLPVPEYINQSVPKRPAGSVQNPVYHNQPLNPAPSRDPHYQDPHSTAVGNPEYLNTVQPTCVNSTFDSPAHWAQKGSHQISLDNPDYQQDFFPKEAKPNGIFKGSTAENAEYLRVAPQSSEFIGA

In the case of `COc1ccc(C=NNC(=O)c2ccc3[nH]c(-c4ccc(Cl)cc4)nc3c2)cc1` [Compound 4g, N′-(4-Methoxybenzylidene)-2-(4-chlorophenyl)-1H-benzimidazole-5-carbohydrazide], the GI50 (IGROV1; Homo sapiens, IGROV-1, read-out: GI50 Conc. per Cell Line) is reported as 1.65 µM, the CC50 (IGROV1; Homo sapiens, IGROV-1, read-out: LC50 (the source's name)) is reported as 9.57 µM and the TGI (IGROV1) is reported as 3.97 µM. The TGI (CCRF-CEM) was >100 µM, the GI50 (CCRF-CEM; [1]) was 4.9 µM and the CC50 (CCRF-CEM; [2]) was > 100 µM. It also gave a TGI (COLO 205) of 5.43 µM, a GI50 (COLO 205; [1]) of 1.94 µM and a CC50 (COLO 205; [2]) of 33 µM. For the same compound, the GI50 (RXF 393; [1]) was 1.86 µM, the CC50 (RXF 393; [2]) was 7.76 µM and the TGI (RXF 393) was 3.80 µM. The IC50 (EGFR) was 0.27 ± 0.03 µM, the TGI (A549/ATCC) was 5.65 µM and the GI50 (A549/ATCC; [1]) was 2.46 µM. The CC50 (A549/ATCC; [2]) was 48.1 µM, the TGI (EKVX) was 5.84 µM and the GI50 (EKVX; [1]) was 2.11 µM. For the same compound, the CC50 (EKVX; [2]) was 36.6 µM, the GI50 (Ovarian Cancer subpanel; [3]) was 3.05 µM and the “GI50 Selectivity Ratio (MID a/MID b)” value (Ovarian Cancer subpanel) was 0.83. For the same compound, the TGI (HCT-15) was 12.80 µM, the GI50 (HCT-15; [1]) was 3.24 µM and the CC50 (HCT-15; [2]) was 82 µM. For the same compound, the IC50 (BRAF^V600E) was 0.6 ± 0.05 µM, the GI50 (KM12; [1]) was 3.03 µM and the CC50 (KM12; [2]) was > 100 µM. For the same compound, the TGI (KM12) was 9.58 µM, the GI50 (T-47D; Homo sapiens, T47D, read-out: GI50 Conc. per Cell Line) was 1.94 µM and the CC50 (T-47D; Homo sapiens, T47D, read-out: LC50 (the source's name)) was 30 µM. The TGI (T-47D) was 4.83 µM, the GI50 (LOX IMVI; [1]) was 2.19 µM and the CC50 (LOX IMVI; [2]) was 7.34 µM. It also gave a TGI (LOX IMVI) of 4.01 µM, a GI50 (SK-MEL-28; [1]) of 1.79 µM and a CC50 (SK-MEL-28; [2]) of 6.35 µM. For the same compound, the TGI (SK-MEL-28) was 3.37 µM, the GI50 (OVCAR-5; [1]) was 2.35 µM and the CC50 (OVCAR-5; [2]) was 33.5 µM. The TGI (OVCAR-5) was 6.89 µM, the GI50 (MCF7; [1]) was 1.47 µM and the CC50 (MCF7; [2]) was 10 µM. The TGI (MCF7) was 3.84 µM, the GI50 (NCI-H522; [1]) was 7.6 µM and the CC50 (NCI-H522; [2]) was > 100 µM. The TGI (NCI-H522) was 81.50 µM, the GI50 (Melanoma subpanel; [3]) was 2.43 µM and the “GI50 Selectivity Ratio (MID a/MID b)” value (Melanoma subpanel) was 1.04. The GI50 (UACC-62; [1]) was 1.94 µM, the CC50 (UACC-62; [2]) was 10.9 µM and the TGI (UACC-62) was 4.47 µM. The LC50 (MALME-3M; Homo sapiens) was 7.9 µM, the GI50 (MALME-3M; [1]) was 1.67 µM and the TGI (MALME-3M) was 3.63 µM.

From article PMC10819888, “Benzimidazole-Based Derivatives as Apoptotic Antiproliferative Agents: Design, Synthesis, Docking, and Mechanistic Studies” (Molecules, 2024)
